According to US12258327B2, “5-membered heteroaryl-containing aminopyridine compounds as EGFR inhibitors” (YUHAN CORPORATION, priority 2021, dated 2025):
Like-named read-outs stand apart in the source and are kept apart here.

Experiments:
[1] = molecular target: EGFR del19/T790M/C797S (Homo sapiens, UniProt P00533, C797S/DEL746-750/T790M); experiment: Biochemical EGFR kinase assay (Lance Ultra TR-FRET), triple mutant del19/T790M/C797S
Protocol: (§1) Biochemical EGFR kinase assays were conducted using Lance Ultra time-resolved fluorescence resonance energy transfer (TR-FRET) technology from Perkin-Elmer. Compounds of the invention were initially diluted to 20 mM in 100% DMSO for storage and made into kinase buffer solution to create a compound concentration ranging from 0.003 μM and 10 μM.
(§2) Each kinase reactions were incubated at room temperature for 1 hour and then stopped by the addition of 4 μL of stop solution (10 mM EDTA). The specific Europium-labeled-anti-phosphopeptide antibody (PerkinElmer, AD0069) diluted in LANCE detection buffer was then added to a final concentration of 2 nM. After 60 minutes incubation at room temperature the LANCE signal was measured on an EnVision Multilabel Reader (Perkin-Elmer). Excitation wavelength was set at 320 nm and emission monitored at 615 nm (donor) and 665 nm (acceptor). The IC50 values were determined using GraphPad prism software (GraphPad Software, Inc., San Diego, CA, USA).

[2] = molecular target: EGFR del19/C797S (Homo sapiens, UniProt P00533, C797S/DEL746-750); experiment: Biochemical EGFR kinase assay (Lance Ultra TR-FRET), double mutant del19/C797S
Protocol: as §1, §2

[3] = molecular target: EGFR L858R/C797S (Homo sapiens, UniProt P00533, C797S/L858R); experiment: Biochemical EGFR kinase assay (Lance Ultra TR-FRET), double mutant L858R/C797S
Protocol: as §1, §2

[4] = molecular target: EGFR wildtype (WT) (Homo sapiens, UniProt P00533); experiment: Biochemical EGFR kinase assay (Lance Ultra TR-FRET), wildtype
Protocol: as §1, §2

[5] = molecular target: EGFR L858R/T790M/C797S (Homo sapiens, UniProt P00533, C797S/L858R/T790M); experiment: Biochemical EGFR kinase assay (Lance Ultra TR-FRET), triple mutant L858R/T790M/C797S
Protocol: as §1, §2

[6] = Km ATP, read-out: IC50 del19/T790M/C797S (nM) Km ATP
[7] = Km ATP, read-out: IC50 del19/C797S (nM) Km ATP
[8] = Km ATP, read-out: IC50 L858R/C797S (nM) Km ATP
[9] = Km ATP, read-out: IC50 WT (nM) Km ATP
[10] = Km ATP, read-out: IC50 L858R/T790M/C797S (nM) Km ATP
[11] = IC50 del19/T790M/C797S (nM) 100 μM ATP, 100 μM ATP
[12] = IC50 del19/C797S (nM) 100 μM ATP, 100 μM ATP
[13] = IC50 L858R/C797S (nM) 100 μM ATP, 100 μM ATP
[14] = IC50 WT (nM) 100 μM ATP, 100 μM ATP
[15] = IC50 L858R/T790M/C797S (nM) 100 μM ATP, 100 μM ATP
[16] = Km ATP, read-out: IC50 del19/C797S, Km ATP
[17] = Km ATP, read-out: IC50 L858R/C797S, Km ATP
[18] = Km ATP, read-out: IC50 WT, Km ATP
[19] = Km ATP, read-out: IC50 L858R/T790M/C797S, Km ATP

Sequence of EGFR L858R/T790M/C797S (P00533 25-1210 T790M/C797S/L858R): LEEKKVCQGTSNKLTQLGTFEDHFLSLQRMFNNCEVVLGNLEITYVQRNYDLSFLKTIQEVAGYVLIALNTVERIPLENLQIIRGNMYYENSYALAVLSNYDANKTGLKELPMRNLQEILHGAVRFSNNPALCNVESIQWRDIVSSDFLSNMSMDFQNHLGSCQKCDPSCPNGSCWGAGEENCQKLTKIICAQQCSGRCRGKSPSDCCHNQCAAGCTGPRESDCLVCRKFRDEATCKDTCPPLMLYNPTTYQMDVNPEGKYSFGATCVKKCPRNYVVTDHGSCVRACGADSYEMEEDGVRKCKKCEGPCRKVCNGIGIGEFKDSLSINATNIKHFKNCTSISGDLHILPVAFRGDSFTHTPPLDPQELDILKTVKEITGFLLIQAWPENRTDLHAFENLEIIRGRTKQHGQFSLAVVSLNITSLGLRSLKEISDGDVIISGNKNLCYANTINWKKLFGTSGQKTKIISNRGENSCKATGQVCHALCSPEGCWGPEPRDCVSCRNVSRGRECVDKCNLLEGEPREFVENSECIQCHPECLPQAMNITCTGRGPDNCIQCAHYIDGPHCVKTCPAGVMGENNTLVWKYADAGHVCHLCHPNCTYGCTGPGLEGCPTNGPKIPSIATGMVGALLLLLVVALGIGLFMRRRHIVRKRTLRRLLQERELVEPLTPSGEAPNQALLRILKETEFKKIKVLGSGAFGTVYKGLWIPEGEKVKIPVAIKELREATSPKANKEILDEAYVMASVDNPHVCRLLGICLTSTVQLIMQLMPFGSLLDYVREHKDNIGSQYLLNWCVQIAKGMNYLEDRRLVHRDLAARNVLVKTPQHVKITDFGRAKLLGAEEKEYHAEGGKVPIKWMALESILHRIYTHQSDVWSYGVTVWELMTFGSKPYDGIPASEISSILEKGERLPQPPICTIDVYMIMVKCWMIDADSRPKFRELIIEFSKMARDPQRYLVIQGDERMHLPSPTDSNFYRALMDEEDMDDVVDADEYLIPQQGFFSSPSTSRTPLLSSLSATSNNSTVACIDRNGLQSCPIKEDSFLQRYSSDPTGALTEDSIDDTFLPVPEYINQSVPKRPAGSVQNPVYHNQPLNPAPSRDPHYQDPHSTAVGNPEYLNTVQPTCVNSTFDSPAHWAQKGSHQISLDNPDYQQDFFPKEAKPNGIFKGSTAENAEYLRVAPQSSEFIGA
Sequence of EGFR del19/T790M/C797S (P00533 with tags, fused parts or gaps DEL746-750/T790M/C797S): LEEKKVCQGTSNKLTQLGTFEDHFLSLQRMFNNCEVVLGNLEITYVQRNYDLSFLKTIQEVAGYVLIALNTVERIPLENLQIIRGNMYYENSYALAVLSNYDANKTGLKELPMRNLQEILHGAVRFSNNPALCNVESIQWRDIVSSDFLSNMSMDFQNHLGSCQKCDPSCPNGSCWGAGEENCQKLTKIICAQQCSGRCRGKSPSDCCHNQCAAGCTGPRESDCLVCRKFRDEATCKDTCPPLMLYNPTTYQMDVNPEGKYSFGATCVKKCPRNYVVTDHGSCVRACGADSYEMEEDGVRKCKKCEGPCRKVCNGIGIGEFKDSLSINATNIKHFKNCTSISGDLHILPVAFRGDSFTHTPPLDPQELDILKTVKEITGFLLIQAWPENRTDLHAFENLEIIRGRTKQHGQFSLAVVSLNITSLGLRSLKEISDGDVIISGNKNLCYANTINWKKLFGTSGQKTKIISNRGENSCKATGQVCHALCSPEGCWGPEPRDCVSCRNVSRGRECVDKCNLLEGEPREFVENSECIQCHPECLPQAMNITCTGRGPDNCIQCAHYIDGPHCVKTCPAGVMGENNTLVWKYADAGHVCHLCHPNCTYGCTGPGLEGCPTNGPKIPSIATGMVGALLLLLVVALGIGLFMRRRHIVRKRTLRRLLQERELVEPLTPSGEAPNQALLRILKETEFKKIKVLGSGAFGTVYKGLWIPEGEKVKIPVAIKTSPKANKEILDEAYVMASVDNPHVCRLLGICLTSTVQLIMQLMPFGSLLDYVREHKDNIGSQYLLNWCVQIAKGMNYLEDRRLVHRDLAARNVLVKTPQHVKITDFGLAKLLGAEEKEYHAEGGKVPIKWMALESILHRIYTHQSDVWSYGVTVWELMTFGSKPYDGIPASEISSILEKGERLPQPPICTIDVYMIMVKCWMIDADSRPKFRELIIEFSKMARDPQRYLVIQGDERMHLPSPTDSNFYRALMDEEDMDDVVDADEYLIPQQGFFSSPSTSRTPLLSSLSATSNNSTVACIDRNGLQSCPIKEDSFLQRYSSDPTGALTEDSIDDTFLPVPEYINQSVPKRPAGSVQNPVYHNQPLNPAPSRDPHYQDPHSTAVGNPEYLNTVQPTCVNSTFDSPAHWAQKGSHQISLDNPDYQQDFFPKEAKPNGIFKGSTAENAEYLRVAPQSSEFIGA
Sequence of EGFR wildtype (WT) (P00533 25-1210): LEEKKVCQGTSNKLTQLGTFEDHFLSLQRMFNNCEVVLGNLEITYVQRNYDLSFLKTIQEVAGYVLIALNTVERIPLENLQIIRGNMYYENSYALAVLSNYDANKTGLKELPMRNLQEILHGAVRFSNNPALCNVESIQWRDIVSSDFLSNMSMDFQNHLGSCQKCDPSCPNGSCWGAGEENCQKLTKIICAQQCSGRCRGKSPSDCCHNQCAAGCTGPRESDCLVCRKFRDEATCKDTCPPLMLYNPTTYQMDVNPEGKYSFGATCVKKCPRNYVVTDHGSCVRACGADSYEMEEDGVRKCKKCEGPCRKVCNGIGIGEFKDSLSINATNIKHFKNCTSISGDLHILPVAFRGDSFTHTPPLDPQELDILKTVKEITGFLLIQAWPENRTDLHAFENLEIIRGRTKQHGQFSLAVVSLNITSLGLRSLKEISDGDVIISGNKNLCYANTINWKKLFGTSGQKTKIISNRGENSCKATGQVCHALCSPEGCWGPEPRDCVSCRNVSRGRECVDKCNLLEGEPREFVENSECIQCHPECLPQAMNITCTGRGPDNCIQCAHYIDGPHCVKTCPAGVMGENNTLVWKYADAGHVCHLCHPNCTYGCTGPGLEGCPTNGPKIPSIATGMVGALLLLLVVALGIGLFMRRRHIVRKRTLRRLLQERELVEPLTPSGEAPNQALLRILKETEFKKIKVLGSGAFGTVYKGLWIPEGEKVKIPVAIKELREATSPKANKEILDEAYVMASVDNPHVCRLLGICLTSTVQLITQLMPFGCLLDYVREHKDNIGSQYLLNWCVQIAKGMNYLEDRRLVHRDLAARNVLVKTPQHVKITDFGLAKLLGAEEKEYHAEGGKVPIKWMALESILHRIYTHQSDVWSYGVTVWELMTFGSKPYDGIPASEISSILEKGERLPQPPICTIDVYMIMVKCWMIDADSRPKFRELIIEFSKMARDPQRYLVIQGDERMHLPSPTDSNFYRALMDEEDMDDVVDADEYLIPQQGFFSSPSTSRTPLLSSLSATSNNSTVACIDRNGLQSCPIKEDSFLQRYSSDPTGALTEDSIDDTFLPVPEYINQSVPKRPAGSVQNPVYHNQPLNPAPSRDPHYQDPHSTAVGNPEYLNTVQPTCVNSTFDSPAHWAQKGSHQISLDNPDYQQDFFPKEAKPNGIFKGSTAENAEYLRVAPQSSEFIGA
Sequence of EGFR del19/C797S (P00533 with tags, fused parts or gaps DEL746-750/C797S): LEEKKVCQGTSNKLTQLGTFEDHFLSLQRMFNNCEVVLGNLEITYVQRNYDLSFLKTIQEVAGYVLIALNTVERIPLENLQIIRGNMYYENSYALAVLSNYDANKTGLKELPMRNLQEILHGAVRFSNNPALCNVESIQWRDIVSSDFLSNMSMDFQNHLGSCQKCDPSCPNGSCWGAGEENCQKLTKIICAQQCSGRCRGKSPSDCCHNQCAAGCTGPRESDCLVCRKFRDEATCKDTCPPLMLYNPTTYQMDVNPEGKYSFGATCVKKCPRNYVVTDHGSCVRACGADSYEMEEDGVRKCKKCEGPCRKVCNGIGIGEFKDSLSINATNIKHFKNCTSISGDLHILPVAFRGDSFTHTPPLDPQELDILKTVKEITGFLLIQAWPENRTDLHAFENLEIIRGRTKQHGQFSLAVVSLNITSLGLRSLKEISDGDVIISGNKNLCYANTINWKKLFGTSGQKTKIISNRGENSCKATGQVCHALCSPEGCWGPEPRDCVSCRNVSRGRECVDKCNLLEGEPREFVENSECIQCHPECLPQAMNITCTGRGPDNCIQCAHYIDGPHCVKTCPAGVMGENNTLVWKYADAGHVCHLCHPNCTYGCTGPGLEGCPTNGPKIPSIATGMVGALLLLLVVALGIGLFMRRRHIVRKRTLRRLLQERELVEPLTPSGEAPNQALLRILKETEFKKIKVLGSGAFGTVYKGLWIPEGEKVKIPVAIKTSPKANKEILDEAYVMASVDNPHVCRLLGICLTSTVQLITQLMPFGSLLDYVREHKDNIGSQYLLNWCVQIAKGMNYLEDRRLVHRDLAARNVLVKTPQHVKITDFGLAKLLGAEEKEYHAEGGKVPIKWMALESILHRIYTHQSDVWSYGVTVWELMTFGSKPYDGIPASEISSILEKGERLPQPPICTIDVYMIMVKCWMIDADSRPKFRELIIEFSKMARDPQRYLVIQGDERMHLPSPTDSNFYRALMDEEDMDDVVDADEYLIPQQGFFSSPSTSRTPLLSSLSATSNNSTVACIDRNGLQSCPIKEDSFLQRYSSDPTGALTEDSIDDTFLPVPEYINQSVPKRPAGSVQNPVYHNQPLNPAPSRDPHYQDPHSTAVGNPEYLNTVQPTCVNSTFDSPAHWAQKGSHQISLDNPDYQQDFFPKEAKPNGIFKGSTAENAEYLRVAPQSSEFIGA

Structure (SMILES) | IC50 [1, 6] | IC50 [2, 7] | IC50 [3, 8] | IC50 [4, 9] | IC50 [5, 10] | IC50 [1, 11] | IC50 [2, 12] | IC50 [3, 13] | IC50 [4, 14] | IC50 [5, 15] | IC50 ([1]; Km ATP, read-out: IC50 del19/T790M/C797S, Km ATP) | IC50 [2, 16] | IC50 [3, 17] | IC50 [4, 18] | IC50 [5, 19]
Cn1ccc(-c2cnc(Nc3ccnc(-c4cnn(S(=O)(=O)C5CC5)c4)n3)cc2NCC2CCC(C(F)F)CC2)n1 (stereo not drawn) [Example 152, N^2-(2-(1-(Cyclopropylsulfonyl)-1H-pyrazol-4-yl)pyrimidin-4-yl)-N^4-((4-(difluoromethyl)cyclohexyl)methyl)-5-(1-methyl-1H-pyrazol-3-yl)pyridine-2,4-diamine] | 8.5 nM | 118 nM | 16.1 nM | 85.1 nM | 3.5 nM |  |  |  |  |  |  |  |  |  | 
O=S(=O)(C1CC1)n1cc(-c2nccc(Nc3cc(NC4CC5(CC(O)C5)C4)c(-c4ccn(C(F)F)n4)cn3)n2)cn1 (stereo not drawn) [Example 103, 6-((2-((2-(1-(Cyclopropylsulfonyl)-1H-pyrazol-4-yl)pyrimidin-4-yl)amino)-5-(1-(difluoromethyl)-1H-pyrazol-3-yl)pyridin-4-yl)amino)spiro[3.3]heptan-2-ol] | 0.8 nM | 31 nM | 24 nM | 58.2 nM | 0.4 nM |  |  |  |  |  |  |  |  |  | 
Cn1ccc(-c2cnc(Nc3ccnc(-c4cnn(S(=O)(=O)C5CC5)c4)n3)cc2NC2CCCC(NCCF)C2)n1 (stereo not drawn) [Example 225, N^2-(2-(1-(Cyclopropylsulfonyl)-1H-pyrazol-4-yl)pyrimidin-4-yl)-N^4-(3-((2-fluoroethyl)amino)cyclohexyl)-5-(1-methyl-1H-pyrazol-3-yl)pyridine-2,4-diamine] | 0.3 nM | 2.9 nM | 5 nM | 27.4 nM | 0.2 nM | 0.2 nM | 6.7 nM | 15.3 nM | > 10000 nM | 0.6 nM |  |  |  |  | 
C[C@]1(O)CC[C@@H](Nc2cc(Nc3ccnc(-c4cnn(S(=O)(=O)C5CC5)c4)n3)nnc2-c2ccn(C(F)F)n2)CC1 [Example 372, (1s,4s)-4-((6-((2-(1-(Cyclopropylsulfonyl)-1H-pyrazol-4-yl)pyrimidin-4-yl)amino)-3-(1-(difluoromethyl)-1H-pyrazol-3-yl)pyridazin-4-yl)amino)-1-methylcyclohexan-1-ol] |  |  |  |  |  |  |  |  |  |  | 0.6 nM | 6.9 nM | 3.7 nM | 108 nM | 0.2 nM
O=S(=O)(C1CC1)n1cc(-c2nccc(Nc3cc(OC4CCC(O)CC4)c(-c4ccn(C(F)F)n4)cn3)n2)cn1 (stereo not drawn) [Example 66, 4-((2-((2-(1-(Cyclopropylsulfonyl)-1H-pyrazol-4-yl)pyrimidin-4-yl)amino)-5-(1-(difluoromethyl)-1H-pyrazol-3-yl)pyridin-4-yl)oxy)cyclohexan-1-ol] | 0.3 nM | 7.7 nM | 5 nM | 38.9 nM | 0.3 nM | 0.4 nM | 4.5 nM | 80.1 nM | > 10000 nM | 2.7 nM |  |  |  |  | 
Cn1ccc(-c2cnc(Nc3ccnc(-c4cnn(S(=O)(=O)C5CC5)c4)n3)cc2N[C@H]2CC[C@H](CO)OC2)n1 [Example 227, ((2R,5S)-5-((2-((2-(1-(Cyclopropylsulfonyl)-1H-pyrazol-4-yl)pyrimidin-4-yl)amino)-5-(1-methyl-1H-pyrazol-3-yl)pyridin-4-yl)amino)tetrahydro-2H-pyran-2-yl)methanol] |  |  |  |  |  | 2.1 nM | 44.4 nM | 962 nM | > 10000 nM | 6.7 nM |  |  |  |  | 
CN(C)C[C@]1(O)CC[C@@H](Nc2cc(Nc3ccnc(-c4cnn(S(=O)(=O)C5CC5)c4)n3)ncc2-c2ccn(C)n2)CC1 [Example 230, (1s,4s)-4-((2-((2-(1-(Cyclopropylsulfonyl)-1H-pyrazol-4-yl)pyrimidin-4-yl)amino)-5-(1-methyl-1H-pyrazol-3-yl)pyridin-4-yl)amino)-1-((dimethylamino)methyl)cyclohexan-1-ol] | 0.2 nM | 4.8 nM | 3.3 nM | 9.4 nM | 0.2 nM | 0.5 nM | 6 nM | 33.8 nM | 4670 nM | 0.5 nM |  |  |  |  | 
O=S(=O)(C1CC1)n1cc(-c2nccc(Nc3cc(N[C@H]4CC[C@@H](CCO)CC4)c(-c4ccn(C(F)F)n4)cn3)n2)cn1 [Example 135, 2-((1s,4s)-4-((2-((2-(1-(Cyclopropylsulfonyl)-1H-pyrazol-4-yl)pyrimidin-4-yl)amino)-5-(1-(difluoromethyl)-1H-pyrazol-3-yl)pyridin-4-yl)amino)cyclohexyl)ethan-1-ol] |  | 0.7 nM | 4.5 nM | 5.7 nM | 0.5 nM |  | 1.1 nM | 58 nM | > 10000 nM | 2.1 nM |  |  |  |  | 
OCC[C@H]1CC[C@H](Nc2cc(Nc3ccnc(-c4cnn(CC(F)F)c4)n3)ncc2-c2ccn(C(F)F)n2)CC1 [Example 147, 2-((1r,4r)-4-((2-((2-(1-(2,2-Difluoroethyl)-1H-pyrazol-4-yl)pyrimidin-4-yl)amino)-5-(1-(difluoromethyl)-1H-pyrazol-3-yl)pyridin-4-yl)amino)cyclohexyl)ethan-1-ol] |  | 93.9 nM | 32.6 nM | 51.5 nM | 0.8 nM |  |  |  |  |  |  |  |  |  | 
O=S(=O)(C1CC1)n1cc(-c2nccc(Nc3cc(N[C@H]4CC[C@@H](NCC(F)F)CC4)c(-c4cc5n(n4)CCCC5)cn3)n2)cn1 [Example 63, N^2-(2-(1-(Cyclopropylsulfonyl)-1H-pyrazol-4-yl)pyrimidin-4-yl)-N^4-((1s,4s)-4-((2,2-difluoroethyl)amino)cyclohexyl)-5-(4,5,6,7-tetrahydropyrazolo[1,5-a]pyridin-2-yl)pyridine-2,4-diamine] |  | 1.8 nM | 2.2 nM | 4.4 nM | 0.7 nM |  | 2.2 nM | 7.7 nM | > 10000 nM | 3.3 nM |  |  |  |  | 
Cc1nn(CC(F)(F)F)cc1-c1nccc(Nc2cc(N[C@H]3CC[C@@](C)(O)CC3)c(-c3ccn(C(F)(F)F)n3)cn2)n1 [Example 341, (1s,4s)-1-Methyl-4-((2-((2-(3-methyl-1-(2,2,2-trifluoroethyl)-1H-pyrazol-4-yl)pyrimidin-4-yl)amino)-5-(1-(trifluoromethyl)-1H-pyrazol-3-yl)pyridin-4-yl)amino)cyclohexan-1-ol] |  |  |  |  |  |  |  |  |  |  |  | 22 nM | 14.8 nM | 48.4 nM | 0.9 nM
CC(C)(O)c1nc(-c2cnc(Nc3ccnc(-c4cnn(S(=O)(=O)C5CC5)c4)n3)cc2N[C@H]2CC[C@@](C)(O)CC2)cs1 [Example 93, (1s,4s)-4-((2-((2-(1-(Cyclopropylsulfonyl)-1H-pyrazol-4-yl)pyrimidin-4-yl)amino)-5-(2-(2-hydroxypropan-2-yl)thiazol-4-yl)pyridin-4-yl)amino)-1-methylcyclohexan-1-ol] |  |  |  |  |  | 4 nM | 5.3 nM | 15.7 nM | > 10000 nM |  |  |  |  |  | 
C[C@]1(O)CC[C@@H](Nc2cc(Nc3ccnc(-c4cnn(S(=O)(=O)C5CC5)c4)n3)ncc2-c2ccn(C(F)F)n2)CC1 [Example 10, (1s,4s)-4-((2-((2-(1-(Cyclopropylsulfonyl)-1H-pyrazol-4-yl)pyrimidin-4-yl)amino)-5-(1-(difluoromethyl)-1H-pyrazol-3-yl)pyridin-4-yl)amino)-1-methylcyclohexan-1-ol] |  |  |  |  |  |  | 3.2 nM | 2.7 nM | 1060 nM | 1.3 nM |  |  |  |  | 
C[C@]1(O)CC[C@@H](Nc2cc(Nc3ccnc(-c4cnn(S(=O)(=O)C5CC5)c4)n3)ncc2-c2ccn(C(F)(F)F)n2)CC1 [Example 285, (1s,4s)-4-((2-((2-(1-(Cyclopropylsulfonyl)-1H-pyrazol-4-yl)pyrimidin-4-yl)amino)-5-(1-(trifluoromethyl)-1H-pyrazol-3-yl)pyridin-4-yl)amino)-1-methylcyclohexan-1-ol] |  | 2.3 nM | 0.6 nM | 3.2 nM | 0.7 nM |  |  |  |  |  |  |  |  |  | 
CC(C)(O)[C@H]1CC[C@@H](Nc2nc(Nc3ccnc(-c4cnn(S(=O)(=O)C5CC5)c4)c3)ncc2-c2ccn(C(F)F)n2)CC1 [Example 365, 2-((1s,4s)-4-((2-((2-(1-(Cyclopropylsulfonyl)-1H-pyrazol-4-yl)pyridin-4-yl)amino)-5-(1-(difluoromethyl)-1H-pyrazol-3-yl)pyrimidin-4-yl)amino)cyclohexyl)propan-2-ol] |  |  |  |  |  |  |  |  |  |  |  | 45.4 nM | 48.4 nM | 306 nM | 2.3 nM
